Test results published in publication PMC5376326, “Inhibition of ANO1 by luteolin and its cytotoxicity in human prostate cancer PC-3 cells” (PLoS ONE, 2017).

Biological target: T1, ANO1 (Homo sapiens, UniProt Q5XXA6, DEL476-501)
T1 sequence (Q5XXA6 with tags, fused parts or gaps isoform Q5XXA6-5 DEL539-564): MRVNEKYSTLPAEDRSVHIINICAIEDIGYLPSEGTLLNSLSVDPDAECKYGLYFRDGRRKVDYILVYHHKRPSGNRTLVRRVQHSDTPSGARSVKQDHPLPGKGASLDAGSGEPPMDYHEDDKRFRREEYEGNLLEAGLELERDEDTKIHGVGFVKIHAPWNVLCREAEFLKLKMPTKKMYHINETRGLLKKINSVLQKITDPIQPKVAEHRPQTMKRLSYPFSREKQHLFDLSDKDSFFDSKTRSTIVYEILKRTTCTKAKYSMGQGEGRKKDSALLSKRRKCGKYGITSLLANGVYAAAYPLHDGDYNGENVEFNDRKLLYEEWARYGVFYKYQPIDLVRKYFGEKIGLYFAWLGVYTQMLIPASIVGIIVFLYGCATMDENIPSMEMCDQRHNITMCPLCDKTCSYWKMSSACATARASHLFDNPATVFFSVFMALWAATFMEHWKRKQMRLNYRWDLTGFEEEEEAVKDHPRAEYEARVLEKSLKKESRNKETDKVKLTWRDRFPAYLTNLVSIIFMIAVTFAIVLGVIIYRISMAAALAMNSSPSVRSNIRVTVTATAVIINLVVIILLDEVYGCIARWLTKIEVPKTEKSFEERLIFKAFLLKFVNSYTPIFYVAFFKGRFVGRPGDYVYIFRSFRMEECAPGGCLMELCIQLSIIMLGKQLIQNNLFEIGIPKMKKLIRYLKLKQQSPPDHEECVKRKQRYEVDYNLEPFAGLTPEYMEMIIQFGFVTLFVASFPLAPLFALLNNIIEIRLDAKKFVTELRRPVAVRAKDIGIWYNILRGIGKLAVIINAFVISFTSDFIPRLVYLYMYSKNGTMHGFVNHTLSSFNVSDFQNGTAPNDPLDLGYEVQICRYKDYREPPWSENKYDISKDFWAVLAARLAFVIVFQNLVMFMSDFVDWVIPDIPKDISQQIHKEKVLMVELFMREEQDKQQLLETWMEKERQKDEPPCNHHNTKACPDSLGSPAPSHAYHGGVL
Assay: Whole-cell patch-clamp in ANO1-expressing FRT cells
Type: cell-based
Settings: 100 μM ATP, read-out: Inhibition of ANO1 chloride currents
Procedure: Patch-clamp recordings were performed on ANO1-expressing FRT cells using the whole-cell recording configuration. The bath solution contained (in mM): 140 NMDG-Cl, 1 CaCl2, 1 MgCl2, 10 glucose and 10 HEPES (pH 7.4). The pipette solution contained (in mM): 130 CsCl, 0.5 EGTA, 1 MgCl2, 1 Tris-ATP, and 10 HEPES (pH 7.2). Pipettes were pulled from borosilicate glass and had resistances of 3–5 MΩ after fire polishing. Seal resistances were between 3 and 10 GΩ. The liquid junction potential (~2.4 mV) was not corrected. After establishing the whole-cell configuration, whole-cell capacitance and series resistance were compensated with the amplifier circuitry. After establishing the whole-cell configuration, ANO1 was activated by ATP (100 μM). Whole-cell currents were elicited by applying hyperpolarizing and depolarizing voltage pulses from a holding potential of 0 mV to potentials between -80 mV and +80 mV in steps of 20 mV. Recordings were made at room temperature using an Axopatch-200B (Axon Instruments, Union City, CA). Currents were digitized and analyzed using a Digidata 1440A converter (Axon Instruments), and pCLAMP 10.2 software (Molecular Devices, Sunnyvale, CA). Currents were low-pass filtered at 1 kHz and sampled at 5 kHz.

In the case of `O=c1cc(-c2ccc(O)c(O)c2)oc2cc(O)cc(O)c12` [luteolin], the inhibition at 10 µM (10 μM) is reported as 55.3 ± 2.8% and the inhibition at 100 µM (100 μM) is reported as 99.2 ± 0.2%.
